This is an account of results in ChEMBL document CHEMBL1147420, “Synthesis and biological evaluation of novel coumarin derivatives with a 7-azomethine linkage” (2004).

Holding throughout (format): functional
A short description of assay [1]: Interaction percent with DPPH after 60 minutes was determined at 0.1 mM concentration.
A short description of assay [2]: Interaction percent with DPPH after 20 minutes was determined at 0.1 mM concentration.
In assay [3] the target is Serine protease 1 (Homo sapiens) (UniProt P07477). Kind of assay: Compound was evaluated for in vitro inhibition of trypsin acting as esterase at 1 mM concentration.
A short description of assay [4]: Competition percent of compound with DMSO for hydroxyl radical was determined at 0.1 mM concentration.
Assay [5] concerns the target Chymotrypsinogen B (Homo sapiens) (UniProt P17538). Kind of assay: Compound was evaluated for in vitro inhibition of chymotrypsinogen induced proteolysis at 0.1 mM concentration.
The target in assay [6] is Serine protease 1 (Homo sapiens) (UniProt P07477). The assay is described as follows: Compound was evaluated for in vitro inhibition of trypsin induced proteolysis at 1 mM concentration.
Assay [7] shares this target. The assay is described as follows: Compound was evaluated for in vitro inhibition of trypsin induced proteolysis at 0.1 mM concentration.
Assay [8] can be described thus: Interaction percent with DPPH after 20 minutes was determined at 0.5 mM concentration.
The nature of assay [9]: Compound was evaluated for percent inhibition of carrageenan induced rat paw edema at 0.005 mmol/kg.
Assay [10] has as its target Serine protease 1 (Homo sapiens) (UniProt P07477). Kind of assay: Compound was evaluated for in vitro inhibition of trypsin acting as esterase at 0.1 mM concentration.
For assay [11], the target named is T1, Seed linoleate 13S-lipoxygenase-1 (Glycine max) (UniProt P08170).
T1 sequence (whole entry): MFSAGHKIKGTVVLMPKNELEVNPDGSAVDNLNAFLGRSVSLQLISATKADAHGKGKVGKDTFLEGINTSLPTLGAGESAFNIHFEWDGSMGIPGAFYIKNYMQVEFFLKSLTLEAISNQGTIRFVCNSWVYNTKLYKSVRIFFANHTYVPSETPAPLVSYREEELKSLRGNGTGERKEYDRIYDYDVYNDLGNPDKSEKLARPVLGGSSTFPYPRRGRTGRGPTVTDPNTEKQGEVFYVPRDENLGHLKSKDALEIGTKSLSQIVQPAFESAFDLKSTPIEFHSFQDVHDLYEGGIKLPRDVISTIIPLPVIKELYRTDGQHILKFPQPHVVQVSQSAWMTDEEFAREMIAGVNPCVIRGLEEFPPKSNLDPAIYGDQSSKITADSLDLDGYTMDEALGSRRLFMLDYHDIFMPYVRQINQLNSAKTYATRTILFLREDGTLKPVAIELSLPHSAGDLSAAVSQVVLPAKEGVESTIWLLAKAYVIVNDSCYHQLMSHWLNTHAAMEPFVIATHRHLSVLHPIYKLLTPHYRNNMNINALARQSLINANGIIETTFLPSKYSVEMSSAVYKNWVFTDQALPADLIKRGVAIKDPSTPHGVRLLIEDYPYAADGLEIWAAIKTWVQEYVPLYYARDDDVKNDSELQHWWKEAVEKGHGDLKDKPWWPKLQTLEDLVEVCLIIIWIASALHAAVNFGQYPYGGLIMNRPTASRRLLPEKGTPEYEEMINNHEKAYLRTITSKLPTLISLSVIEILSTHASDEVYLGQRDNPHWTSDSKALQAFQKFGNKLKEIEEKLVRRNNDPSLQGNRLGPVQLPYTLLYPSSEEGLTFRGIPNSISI
The assay is described as follows: Compound was evaluated for in vitro inhibition of soybean lipoxygenase at 1 mM concentration.

The nature of assay [12]: Interaction percent with DPPH after 60 minutes was determined at 0.5 mM concentration.
The target of assay [13] is Chymotrypsinogen B (Homo sapiens) (UniProt P17538). The assay is described as follows: Compound was evaluated for in vitro inhibition of chymotrypsinogen acting as esterase at 0.1 mM concentration.
The target is the same in assay [14]. Kind of assay: Compound was evaluated for in vitro inhibition of chymotrypsinogen induced proteolysis at 1 mM concentration.
For assay [15] the target is unchanged. Kind of assay: Compound was evaluated for in vitro inhibition of chymotrypsinogen acting as esterase at 1 mM concentration.
A short description of assay [16]: Interaction percent with DPPH after 20 minutes was determined at 0.2 mM concentration.
Assay [17] addresses T2, Beta-glucuronidase (Bos taurus) (UniProt A3KMY8).
T2 sequence (whole entry): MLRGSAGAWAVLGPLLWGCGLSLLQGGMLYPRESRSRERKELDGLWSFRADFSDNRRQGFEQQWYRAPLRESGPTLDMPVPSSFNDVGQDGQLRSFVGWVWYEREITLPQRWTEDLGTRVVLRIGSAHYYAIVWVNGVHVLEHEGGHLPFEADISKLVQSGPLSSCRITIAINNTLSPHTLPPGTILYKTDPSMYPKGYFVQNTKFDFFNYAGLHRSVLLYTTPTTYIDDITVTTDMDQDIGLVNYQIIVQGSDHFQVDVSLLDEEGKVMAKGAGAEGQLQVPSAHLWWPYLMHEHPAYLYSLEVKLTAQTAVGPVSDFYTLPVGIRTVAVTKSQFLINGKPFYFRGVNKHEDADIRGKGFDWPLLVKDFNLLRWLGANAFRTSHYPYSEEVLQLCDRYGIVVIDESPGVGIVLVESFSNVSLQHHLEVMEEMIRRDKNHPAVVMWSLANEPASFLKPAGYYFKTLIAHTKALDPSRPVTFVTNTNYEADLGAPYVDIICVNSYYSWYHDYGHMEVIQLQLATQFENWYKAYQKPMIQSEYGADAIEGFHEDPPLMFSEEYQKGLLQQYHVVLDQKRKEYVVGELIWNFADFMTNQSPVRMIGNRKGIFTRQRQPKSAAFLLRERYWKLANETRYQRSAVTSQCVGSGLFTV
The assay is described as follows: Compound was evaluated for in vitro inhibition of beta-glucuronidase at 1 mM concentration.

Assay [18] concerns the target T2, Beta-glucuronidase (Bos taurus). The assay is described as follows: Compound was evaluated for in vitro inhibition of beta-glucuronidase at 0.1 mM concentration; […].
Assay [19] addresses T1, Seed linoleate 13S-lipoxygenase-1 (Glycine max). The assay is described as follows: Compound was evaluated for in vitro inhibition of soybean lipoxygenase at 0.1 mM concentration.
Assay [20] in a line: Competition percent of compound with DMSO for hydroxyl radical was determined at 0.01 mM concentration.
Assay [21] can be described thus: Interaction percent with DPPH after 60 minutes was determined at 0.2 mM concentration.
Assay [22] concerns the target T2, Beta-glucuronidase (Bos taurus). Kind of assay: Compound was evaluated for in vitro inhibition of beta-glucuronidase at 0.1 mM concentration.
Assay [23] concerns the target T1, Seed linoleate 13S-lipoxygenase-1 (Glycine max). Kind of assay: Compound was evaluated for in vitro inhibition of soybean lipoxygenase at 0.1 mM concentration; no action.
The target of assay [24] is Chymotrypsinogen B (Homo sapiens) (UniProt P17538). The assay is described as follows: Compound was evaluated for in vitro inhibition of chymotrypsinogen induced proteolysis at 0.1 mM concentration; no action.

SMILES strings stand for the structures.

Chain of Serine protease 1 (Homo sapiens) (P07477 whole entry): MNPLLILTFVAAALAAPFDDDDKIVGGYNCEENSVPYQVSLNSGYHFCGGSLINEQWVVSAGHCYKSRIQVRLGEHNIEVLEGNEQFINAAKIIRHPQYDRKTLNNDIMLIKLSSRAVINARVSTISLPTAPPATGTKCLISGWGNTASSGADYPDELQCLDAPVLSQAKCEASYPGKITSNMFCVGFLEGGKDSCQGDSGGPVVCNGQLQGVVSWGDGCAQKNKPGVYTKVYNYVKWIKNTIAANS
Chain of Chymotrypsinogen B (Homo sapiens) (P17538 34-164 limits assumed, other chains not shown): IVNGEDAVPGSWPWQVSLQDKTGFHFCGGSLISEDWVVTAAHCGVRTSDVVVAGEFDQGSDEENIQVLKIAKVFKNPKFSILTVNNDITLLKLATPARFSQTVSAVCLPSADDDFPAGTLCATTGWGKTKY
Chain of Chymotrypsinogen B (Homo sapiens) (P17538 167-263 limits assumed, other chains not shown): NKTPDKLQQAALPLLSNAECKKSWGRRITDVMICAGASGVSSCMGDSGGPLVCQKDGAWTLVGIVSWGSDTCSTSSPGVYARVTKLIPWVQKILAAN

Consider `O=c1ccc2ccccc2o1` [COUMARIN], for which the RA in [1] is 21%; in [2], 4.9%; in assay [8] it was 5.8%; in assay [12], 6.7%. The inhibition was 98% in assay [3]; “No action” in assay [5]; 95.9% in assay [6]; 12.7% in assay [7]; 5% in [10]; 15.1% in assay [11]. The inhibition in [13] came to 28.5%; in assay [14], 89.3%; in assay [15], 63.9%. In assay [4], the Competition stood at 78%. The same compound yielded an inhibition in vivo at 5 µmol/kg in assay [9] of 30.2%.

With `O=c1ccc2ccc(/C=N/O)cc2o1`, the RA in assay [1] is 4.8%; in [16], 3.52%; in assay [2], 0.29%; in assay [8], 9.7%; in assay [12], 12.8%; in assay [21], 7.1%. Moreover, the inhibition in assay [17] is 100%; in [18], “No action”; in assay [3], 98.5%; in assay [5], 37.4%; in [6] it was 77.7%; in assay [7], 70.7%. Besides, the inhibition in assay [10] is 20.3%; in [19] it was 37.2%; in assay [11], 98.8%; in assay [13], 28.5%; in assay [14], 98.7%; in assay [15] it was 100%. Further, the values for the Competition in assay [4] and in assay [20] were 50.8% and 43.4%, respectively. For the same compound, the inhibition in vivo at 5 µmol/kg in [9] stood at 58.6%.

In turn, `COc1ccc2c(c1)c(CC(=O)O)c(C)n2C(=O)c1ccc(Cl)cc1` [INDOMETHACIN] gave an inhibition in vivo at 5 µmol/kg in assay [9] of 47%.

Turning to `CO/N=C/c1ccc2ccc(=O)oc2c1`, the RA in [1] amounted to 9.8%; in assay [16], 14.5%; in assay [2] it was 12.7%; in assay [8] it was 13.9%; in assay [12], 11.9%; in assay [21], 11.6%. The inhibition in assay [17] worked out at 94.1%; in [3], 99.9%; in [6] it was 100%; in [7], 100%; in assay [10], 25.5%; in [11], 100%. Further, the inhibition in assay [13] was 16.6%; in assay [22], 21.9%; in assay [23], “No action”; in [14] it was 56.9%; in [24], “No action”; in assay [15] it was 100%. Besides, the Competition in [4] is 90.2%; in [20], 85.6%. For the same compound, in assay [9], the inhibition in vivo at 5 µmol/kg came out at 31.1%.

Regarding `O=c1ccc2ccc(/C=N/c3ccccc3)cc2o1`, the RA in assay [1] is 10%; in assay [16] it was 13.5%; in [2], 12.9%; in assay [8], 14.3%; in assay [12], 11.6%; in assay [21], 10.6%. Moreover, the inhibition in assay [17] came out at 95.4%; in assay [3], 97.6%; in [5], 90.5%; in assay [6], 95.9%; in assay [7] it was 35.3%; in assay [10] it was 22.6%. The inhibition turned out to be 54.3% in assay [19]; 100% in [11]; 10% in assay [13]; 26.1% in assay [22]; 73.9% in assay [14]; 83.4% in [15]. Moreover, the Competition came out at 89.6% in assay [4] and 72.2% in assay [20]. Also, the inhibition in vivo at 5 µmol/kg in [9] was 42.5%.

Regarding `Cc1ccc2ccc(=O)oc2c1`, the RA in assay [1] was found to be 2.5%; in [16], 1.61%; in assay [2], 0.29%; in assay [8], 2.05%; in [12], 3.5%; in assay [21] it was 5.4%. Also, the inhibition in [17] is 95.9%; in [18], “No action”; in [3], 88.7%; in [5] it was 48.1%; in [6], 100%; in assay [7] it was 90.4%. Further, the inhibition in assay [10] stood at 13.6%; in assay [19], 73.5%; in assay [11], 88.9%; in [13] it was 16.4%; in [14], 97.4%; in assay [15], 97.7%. The Competition in assay [4] came out at 43.8%; in assay [20], 30.2%. This compound also yielded an inhibition in vivo at 5 µmol/kg in [9] of 55.1%.

In the case of `O=Cc1ccc2ccc(=O)oc2c1`, the RA amounted to 3.5% in assay [1]; 2.49% in assay [16]; 1.47% in assay [2]; 16.2% in [8]; 12.8% in assay [12]; 7.1% in assay [21]. The inhibition was 98.9% in assay [17]; “No action” in [18]; 99.1% in [3]; 32.8% in assay [5]; 100% in [6]; 83.4% in [7]. Besides, the inhibition was 12.6% in [10]; 8.6% in assay [19]; 89.7% in assay [11]; 22.7% in [13]; 96.6% in assay [14]; 98.9% in [15]. For the same compound, the Competition turned out to be 35.2% in assay [4] and 33.9% in assay [20]. Also, the inhibition in vivo at 5 µmol/kg in assay [9] stood at 29.3%.

Take `O=c1ccc2ccc(/C=N/N=C/c3ccc4ccc(=O)oc4c3)cc2o1`: the RA in assay [1] is 9.9%; in assay [16], 6.3%; in [2], 7.04%; in [8], 64.4%; in assay [12], 67.5%; in assay [21], 8.4%. For the same compound, the inhibition in assay [17] worked out at 100%; in assay [3] it was 65.4%; in assay [5], 24.5%; in assay [6], 100%; in assay [7] it was 99.9%; in assay [10], 9.4%. Moreover, the inhibition in assay [19] is 8.6%; in assay [11] it was 10.2%; in assay [13], 29.9%; in [22] it was 2.3%; in [14] it was 100%; in assay [15], 65.2%. For the same compound, the results for the Competition in assay [4] and in [20] were 45.3% and 44.5%, respectively. Besides, the inhibition in vivo at 5 µmol/kg in assay [9] was 54%.
